Test results published in patent US12295970B2, “Imidazoquinoline compounds and prodrugs thereof” (UNIVERSITY OF KANSAS, priority 2019, dated 2025).

Experiments:
hTLR8 = target: T1, hTLR8 (Homo sapiens, UniProt Q9NR97); experiment: SEAP reporter assay for hTLR-8 activity (HEK-Blue hTLR8 cells); type: cell-based
T1 construct: host or cells: HEK293 (HEK-Blue hTLR8)
T1 sequence (Q9NR97 27-1041): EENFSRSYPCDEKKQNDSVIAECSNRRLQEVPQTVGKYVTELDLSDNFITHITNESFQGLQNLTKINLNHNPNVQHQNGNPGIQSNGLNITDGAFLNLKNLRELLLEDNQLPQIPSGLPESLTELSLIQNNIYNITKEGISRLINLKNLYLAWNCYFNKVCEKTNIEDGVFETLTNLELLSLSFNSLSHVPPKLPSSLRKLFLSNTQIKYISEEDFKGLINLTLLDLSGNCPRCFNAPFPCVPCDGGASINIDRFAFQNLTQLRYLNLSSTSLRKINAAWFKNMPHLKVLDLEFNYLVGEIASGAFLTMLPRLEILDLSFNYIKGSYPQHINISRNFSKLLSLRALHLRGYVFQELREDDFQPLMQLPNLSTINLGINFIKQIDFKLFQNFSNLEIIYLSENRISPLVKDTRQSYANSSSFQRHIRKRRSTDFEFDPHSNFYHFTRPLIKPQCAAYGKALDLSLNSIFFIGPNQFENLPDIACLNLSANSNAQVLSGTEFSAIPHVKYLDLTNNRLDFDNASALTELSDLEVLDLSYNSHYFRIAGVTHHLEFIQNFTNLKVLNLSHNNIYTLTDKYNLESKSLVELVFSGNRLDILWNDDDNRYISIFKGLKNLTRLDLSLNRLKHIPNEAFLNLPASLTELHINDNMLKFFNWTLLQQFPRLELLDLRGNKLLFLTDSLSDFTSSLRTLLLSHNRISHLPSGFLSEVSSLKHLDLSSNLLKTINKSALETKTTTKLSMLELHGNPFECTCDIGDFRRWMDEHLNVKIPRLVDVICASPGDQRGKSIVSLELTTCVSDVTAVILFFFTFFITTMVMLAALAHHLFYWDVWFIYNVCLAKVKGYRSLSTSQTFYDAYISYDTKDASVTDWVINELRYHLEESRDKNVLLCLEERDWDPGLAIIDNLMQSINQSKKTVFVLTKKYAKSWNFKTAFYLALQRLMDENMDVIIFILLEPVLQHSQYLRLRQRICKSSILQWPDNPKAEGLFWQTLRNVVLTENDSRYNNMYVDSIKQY
Description: TLR activation induces NF-κB production and subsequent SEAP secretion, which is measured using HEK-Detection media (InvivoGen) containing a colorimetric substrate for SEAP (UV-Vis, 637 nm).
The experiments followed manufacturer protocol as follows: SEAP levels were measured via absorbance at 637 nm using HEK-Blue Detection cell culture medium (InvivoGen), which contains a SEAP-specific colorimetric substrate. Compound stock solutions were first diluted in sterile DMSO at a concentration of 10 mM. Lower concentrations were prepared by serial dilution of the initial 10 mM stock samples into sterile DMSO and these solutions (22 μL) were subsequently diluted into sterile H2O (198 μL) using a BioTek Precision XS pipetting system. HEK-Blue hTLR7, HEK-Blue hTLR8, Null 1−k, and Null 1 cell suspensions in sterile HEK-Blue Detection medium were prepared at a density of 220,000 cells per mL. Clear bottom, 96-well tissue culture treated plates (Corning) were seeded with hTLR7 and Null 1−k or hTLR8 and Null 1 cell suspensions (180 μL/well), after which 20 μL of the various sample concentrations in 10% v/v DMSO/H2O were added (20 μL) in quadruplicate wells to yield the desired testing concentration in 1% v/v DMSO cell suspension. Plates were incubated at 37° C. and 5% CO2 in the dark. Absorbance measurements were taken at 637 nm at 12 hours, 4 replicates per concentration point, per cell line (hTLR7, hTLR8, Null 1−k, Null 1). Three independent measurements on different days were performed for each analog.
Corresponding well absorbance values for each concentration tested were averaged with respect to days tested, and the average relative NF-κB induction (UV-Vis, 637 nm) of the null cell lines (Null 1-k or Null 1) were subtracted from the respective average TLR expressing cell line (hTLR7 or hTLR8) absorbance averages. […] The three independent, normalized averages for each analog were then pooled, and the data was fit using the Hill-Slope model (GraphPad Prism v7.0) using the non-linear fit from the [Agonist] vs. response—Variable Slope (four parameters) with a hill slope constrained to less than 3.

[1] = In vitro release kinetics (dialysis method); type: physicochemical; conditions: PBS media, pH 7.4
Description: Solutions (1 mL) of free R848 in DMSO, R848/HA-Toco in water, R848-Toco in DMSO, and R848-Toco/HA-Toco in water, with a concentration of 1 mg/mL on R848 basis were dialyzed using SnakeSkin® dialysis tubing (MWCO […]) against 30 mL of phosphate buffered saline release medium (PBS, 10 mM sodium phosphate, 137 mM NaCl, pH 7.4) with 0.5% (w/v) polysorbate 80 at 37° C. At predetermined time points, 1 mL aliquots of release medium were sampled and replaced with an equal volume of fresh medium. The samples were kept frozen (−20° C.) until HPLC analysis.
Results: The in vitro release profiles of R848 and R848-Toco from the HA-Toco were studied using a dialysis method. […] The release of parent R848 formulated with HA-Toco was tested in PBS media, with free R848 dissolved in DMSO as a control. Similar release kinetics were observed whether R848 was formulated with HA-Toco or without ([…]), and in both conditions nearly 100% of the agonist was released over 24 h (FIG. 4A).

**Q.** With `CCOCc1nc2c(N)nc3ccccc3c2n1CC(C)(C)O` [Compound 2, resiquimod, reference compound] as the compound, how does the “agonist for TLR8 receptor (in words)” value (hTLR8) read?
**A.** Its value is “agonists”.

**Q.** And the “agonist released over 24 h” value [1]?
**A.** The value was about 100%.
